In paper PMC9011347, “Small-Molecule Inhibitors Targeting Lipolysis in Human Adipocytes” (Journal of the American Chemical Society, 2022):
Read-outs that look alike come from different tables or passages of the source.

Tested on: human Simpson–Golabi–Behmel syndrome (SGBS) adipocytes
Assay: Lipolysis in SGBS adipocytes (FA, glycerol release, DAG content)
Type: cell-based
Conditions: for IC50: Homo sapiens, 1 h preincubation, isoproterenol 1 μM
Experimental: Figure 3 NG-497 inhibits lipolysis in human SGBS and primary human adipocytes. SGBS adipocytes were preincubated with NG-497 for 1 h at the indicated concentrations. Subsequently, lipolysis was stimulated with isoproterenol (1 μM) and (a) FA and (b) glycerol release was determined after 1 h using commercial kits. (c) Dose-dependent inhibition of isoproterenol-stimulated FA release from SGBS adipocytes by the HSL inhibitor 76-068 (HSLi). […] (e) DAG accumulation in SGBS adipocytes was analyzed by thin-layer chromatography (TLC) following 1 h incubation with HSLi (25 μM), NG-497 (40 μM), and a combination of both inhibitors. (f) Primary human adipocytes were prelabeled with 1 μCi [9,10-^3H] oleic acid per well for 12 h. Subsequently, basal and Forskolin (5 μM)-stimulated release of radioactivity was determined via liquid scintillation over a period of 2 h in the presence or absence of NG-497 (40 μM). FA release was calculated based on FA concentrations in conditioned media after 2 h as determined using a commercial kit. (g) Primary human adipocytes were preincubated in the presence or absence of NG-497 (40 μM) for 1 h. Subsequently, the medium was changed and FA release was monitored over a period of 3 h under the indicated conditions. Data are presented as mean ± SD. Statistical significance was determined via ANOVA followed by Bonferroni post hoc test (^#p < 0.05; ^##p < 0.01; ^###p < 0.001). TEXT PRINTED IN THE PICTURE: (a) NG-497: IC50 (μM) 1.5 ± 0.5 | (b) NG-497: IC50 (μM) 1.5 ± 0.5 | (c) HSLi: IC50 (nM) 100 ± 15 | (d) NG-497: IC50 (μM) 0.5 ± 0.1 […]
Lipidomic analysis. HepG2 cells were treated for 3 hours with 40 µM NG-497 or DMSO as control. Subsequently, cells were washed three times with PBS, harvested, and extracted with 700 µl MTBE:MeOH (10:3, v:v) for 1 hour at 4 °C on a Thermomix shaker at 1,400 rpm. 200 µl H2O were added, shaken for another 20 min, centrifuged for 10 min at 20,000 g for phase separation.
500 µl of the organic phase was transferred and evaporated under a stream of nitrogen. […] The aqueous phase was dried, the protein pellet incubated overnight with 400 µl NaOH/SDS (0.3 M/0.1%) and total protein content analyzed by the BCA protein assay (Thermo Fisher Scientific) according to the manufacturer’s instructions.
Lipid samples were separated on an Agilent 1290 Infinite II UHPLC with gradient elution over a Zorbax Extend-C18 reversed phase column (2.1 x 50 mm, 1.8µm) at 50°C. […] Samples were analyzed on an Agilent 6560 Ion Mobility Q-ToF mass spectrometer in Qtof-only mode over a scan range of 100 to 1700 m/z in negative mode and 150 to 1700 m/z in positive mode with automatic MS/MS generation. All samples were analyzed in triplicates using iterative acquisition mode to increase the number of MS/MS spectra for better annotation. […]

CCOc1ccc(-c2cc(OC)cc(C(=O)OC(C)C)n2)cc1 [NG-497]
IC50 (1 h, read-out: IC50 of isoproterenol-stimulated FA release): 1500 nM
IC50 (1 h, read-out: IC50 of isoproterenol-stimulated glycerol release): 1500 nM
DAG accumulation under combined inhibition of HSL and ATGL (NG-497 40 μM combined with HSLi 25 μM, 1 h, TLC): prevented DAG accumulation
effect on lipolysis (concentrations ≥10 μM): almost completely abolished lipolysis
